Key:
Format in all cases: biochemical
[1] = target: human GCN2 (full length, purified; Carna Bioscience # 05-153) (Homo sapiens, UniProt Q9P2K8); test: LanthaScreen TR-FRET kinase assay, GFP-eIF2alpha
[2] = target: human PKR (Carna Bioscience # 05-156) (Homo sapiens, UniProt P19525); test: LanthaScreen TR-FRET kinase assay, GFP-eIF2alpha
[3] = target: human HRI (Carna Bioscience # 05-154) (Homo sapiens, UniProt Q9BQI3); test: LanthaScreen TR-FRET kinase assay, GFP-eIF2alpha
[4] = target: full-length human GCN2 (N-terminal twin StrepII tag) (Homo sapiens, UniProt Q9P2K8); test: in vitro kinase assay, immunoblot of p-Ser51 eIF2alpha; details: 100 uM ATP, 2 uM full-length eIF2alpha, 30 °C, 20 min, no tRNA
full-length human GCN2 (N-terminal twin StrepII tag), sequence (Q9P2K8 whole entry): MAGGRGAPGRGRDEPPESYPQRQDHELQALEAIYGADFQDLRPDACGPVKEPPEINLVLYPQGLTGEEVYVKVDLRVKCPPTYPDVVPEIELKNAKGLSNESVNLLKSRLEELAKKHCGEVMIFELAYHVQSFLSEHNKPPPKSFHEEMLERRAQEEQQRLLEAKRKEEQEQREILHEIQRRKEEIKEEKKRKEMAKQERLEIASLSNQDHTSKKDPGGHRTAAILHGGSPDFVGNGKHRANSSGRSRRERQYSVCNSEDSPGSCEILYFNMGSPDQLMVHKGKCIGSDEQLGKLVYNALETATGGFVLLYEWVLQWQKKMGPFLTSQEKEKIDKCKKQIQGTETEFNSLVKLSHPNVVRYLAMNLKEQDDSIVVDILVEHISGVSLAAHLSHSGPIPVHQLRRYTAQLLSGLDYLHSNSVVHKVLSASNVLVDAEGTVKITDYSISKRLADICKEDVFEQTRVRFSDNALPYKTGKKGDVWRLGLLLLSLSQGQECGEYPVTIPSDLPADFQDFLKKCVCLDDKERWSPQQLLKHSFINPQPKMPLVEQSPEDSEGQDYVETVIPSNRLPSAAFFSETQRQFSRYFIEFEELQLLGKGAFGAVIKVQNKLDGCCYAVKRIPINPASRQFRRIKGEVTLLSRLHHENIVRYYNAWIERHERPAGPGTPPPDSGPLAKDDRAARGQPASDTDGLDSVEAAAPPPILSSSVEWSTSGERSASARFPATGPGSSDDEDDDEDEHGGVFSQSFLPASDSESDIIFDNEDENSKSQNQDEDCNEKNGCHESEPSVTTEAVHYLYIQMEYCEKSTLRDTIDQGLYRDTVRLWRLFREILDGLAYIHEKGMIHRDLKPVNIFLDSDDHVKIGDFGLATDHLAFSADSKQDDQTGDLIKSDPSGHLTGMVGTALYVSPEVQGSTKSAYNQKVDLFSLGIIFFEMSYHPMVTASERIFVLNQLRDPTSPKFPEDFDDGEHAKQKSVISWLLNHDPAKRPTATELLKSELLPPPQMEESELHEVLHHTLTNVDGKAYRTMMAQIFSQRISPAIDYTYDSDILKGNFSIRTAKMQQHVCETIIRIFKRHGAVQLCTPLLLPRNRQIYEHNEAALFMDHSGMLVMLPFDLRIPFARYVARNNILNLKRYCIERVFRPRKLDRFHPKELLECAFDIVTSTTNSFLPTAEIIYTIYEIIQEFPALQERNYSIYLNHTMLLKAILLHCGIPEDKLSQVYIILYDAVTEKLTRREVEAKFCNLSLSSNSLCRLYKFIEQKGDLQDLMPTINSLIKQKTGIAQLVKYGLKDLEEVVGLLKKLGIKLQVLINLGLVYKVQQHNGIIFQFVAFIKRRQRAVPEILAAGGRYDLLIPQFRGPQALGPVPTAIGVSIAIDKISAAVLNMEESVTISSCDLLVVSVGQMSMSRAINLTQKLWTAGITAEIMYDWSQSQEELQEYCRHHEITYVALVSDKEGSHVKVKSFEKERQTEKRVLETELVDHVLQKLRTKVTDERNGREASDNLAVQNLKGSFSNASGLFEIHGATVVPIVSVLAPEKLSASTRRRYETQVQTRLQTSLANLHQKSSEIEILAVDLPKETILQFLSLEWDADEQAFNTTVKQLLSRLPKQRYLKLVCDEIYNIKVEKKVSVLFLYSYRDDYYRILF

human GCN2 (full length, purified; Carna Bioscience # 05-153), sequence (Q9P2K8 whole entry): as above
human PKR (Carna Bioscience # 05-156), sequence (P19525 2-551): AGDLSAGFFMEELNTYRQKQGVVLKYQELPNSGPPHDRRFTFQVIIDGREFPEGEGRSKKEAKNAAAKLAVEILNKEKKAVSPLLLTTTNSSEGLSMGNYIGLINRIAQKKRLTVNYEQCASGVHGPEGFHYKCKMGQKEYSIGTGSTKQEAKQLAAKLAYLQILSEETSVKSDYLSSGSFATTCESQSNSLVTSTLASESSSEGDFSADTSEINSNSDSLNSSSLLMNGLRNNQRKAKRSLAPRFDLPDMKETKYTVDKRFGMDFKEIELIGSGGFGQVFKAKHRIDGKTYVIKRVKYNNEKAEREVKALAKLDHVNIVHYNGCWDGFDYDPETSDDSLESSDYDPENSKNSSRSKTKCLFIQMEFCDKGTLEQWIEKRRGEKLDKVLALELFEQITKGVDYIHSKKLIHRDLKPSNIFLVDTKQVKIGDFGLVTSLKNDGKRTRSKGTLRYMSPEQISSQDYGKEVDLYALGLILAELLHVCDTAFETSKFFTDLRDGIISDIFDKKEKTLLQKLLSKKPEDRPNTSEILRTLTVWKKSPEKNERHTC
human HRI (Carna Bioscience # 05-154), sequence (Q9BQI3 whole entry): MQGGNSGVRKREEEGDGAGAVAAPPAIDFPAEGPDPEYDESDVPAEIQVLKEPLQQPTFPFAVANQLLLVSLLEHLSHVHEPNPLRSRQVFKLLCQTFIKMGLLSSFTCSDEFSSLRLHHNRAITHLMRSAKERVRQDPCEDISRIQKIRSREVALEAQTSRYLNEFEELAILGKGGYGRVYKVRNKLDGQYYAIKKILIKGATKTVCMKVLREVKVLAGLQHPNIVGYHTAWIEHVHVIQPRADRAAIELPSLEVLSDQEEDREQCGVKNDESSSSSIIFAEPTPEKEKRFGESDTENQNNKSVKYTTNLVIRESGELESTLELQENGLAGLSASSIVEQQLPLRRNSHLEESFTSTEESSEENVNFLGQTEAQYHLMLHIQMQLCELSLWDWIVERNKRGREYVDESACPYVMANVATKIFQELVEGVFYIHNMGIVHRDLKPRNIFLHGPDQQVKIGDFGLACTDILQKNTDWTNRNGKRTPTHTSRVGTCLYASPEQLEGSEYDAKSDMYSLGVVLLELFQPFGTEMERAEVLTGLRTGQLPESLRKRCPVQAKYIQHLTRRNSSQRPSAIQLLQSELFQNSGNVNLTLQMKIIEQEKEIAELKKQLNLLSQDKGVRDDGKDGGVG

Q: With `Cc1nn(-c2ccccc2)c2sc(C(=O)Nc3ccc(S(=O)(=O)NCc4ccco4)cc3)cc12` [compound 18, N-(4-{[(furan-2-yl)methyl]sulfamoyl}phenyl)-3-methyl-1-phenyl-1H-thieno[2,3-c]pyrazole-5-carboxamide] as the molecule, how does the IC50 [1] read?
A: > 3 µM

Q: What about the IC50 [2] of the same molecule?
A: 4.5 µM

Q: `COc1ncc(Cl)cc1S(=O)(=O)Nc1ccc(F)c(C#Cc2cnc(N)nc2)c1F` [GCN2iB] was tested. Which IC50 [1] did it give?
A: 0.00155 µM

Q: And the IC50 [3]?
A: 0.00276 µM

Q: What about the IC50 [2] of the same molecule?
A: 3.26 µM

Q: For `Cc1nc(N)sc1-c1csc(Nc2ncccn2)n1` [compound 20, 4’-methyl-N∼2∼-2-pyrimidinyl-4,5’-bi-1,3-thiazole-2,2’-diamine], which IC50 [1] is on record?
A: > 3 µM

Q: What about the IC50 [2] of the same molecule?
A: 3.75 µM

Q: What about the fold activation [4] of the same molecule?
A: ~ 40 fold

Q: How did the IC50 [1] turn out when `CS(=O)(=O)c1ncc(-c2ccc(Br)cc2)cn1` [compound 21, 5-(4-bromophenyl)-2-(methylsulfonyl)pyrimidine] was run?
A: > 3 µM

From article doi:10.1101/2025.06.29.662197v2 (biorxiv, 2026)
